From paper PMC10458937, “Triose Phosphate Isomerase Structure-Based Virtual Screening and In Vitro Biological Activity of Natural Products as Leishmania mexicana Inhibitors” (Pharmaceutics, 2023) come the findings set out here.

Series [1] relates to L. mexicana MHOM/MX/2017/UABJO17FCQEPS promastigotes. The experiment in a line: In vitro leishmanicidal evaluation on promastigotes (MTT), strain FCQEPS. Format: cell-based. The following applies: 48 h, read-out: Leishmania mexicana IC50 (µM ± SD) FCQEPS. On the procedure:
(§1) The metabolic activity of the cells was determined using the method of 3-(4,5-Dimethylthiazol-2-yl)-2,5-diphenyltetrazolium bromide (MTT). The half-maximum inhibitory concentration (IC50) was determined using probit analysis. Three independent assays were each performed in triplicate. Biostat software was used to analyze the data for statistically significant data (p < 0.05).

Series [2] deals with promastigote of both L. mexicana strains. The series can be described thus: In vitro leishmanicidal activity, promastigote of both L. mexicana strains (abstract). It is filed as cell-based, Leishmania mexicana. Conditions: rounded value of the abstract. On the procedure: Promastigotes from the reference strain of L. mexicana (MNYC/BZ/62/M379) and the autochthonous isolate of L. mexicana (MHOM/MX/2017/UABJO17FCQEPS) were used in the in vitro studies. Parasites were preserved in RPMI 1640 supplemented with 10% fetal bovine serum (FBS), 100 U/mL penicillin, 100 ug/mL streptomycin, and glutamine (2 mM). The parasites, in their logarithmic growth phase (5 × 10^5 parasites/mL), were incubated in 96-well plates with the compounds under different concentrations (0.78–100 µM) dissolved in dimethyl sulfoxide (DMSO) in a final volume of 200 µL for 48 h at 26 °C. Parasites in the presence of DMSO (0.2%) were included as a negative control. […] The metabolic activity of the cells was determined using the method of 3-(4,5-Dimethylthiazol-2-yl)-2,5-diphenyltetrazolium bromide (MTT). The half-maximum inhibitory concentration (IC50) was determined using probit analysis. Three independent assays were each performed in triplicate. Biostat software was used to analyze the data for statistically significant data (p < 0.05).

The test system of the next series is J774.2 cell line. The experiment in a line: Cytotoxicity in murine macrophages (MTT). It is filed as cell-based, mouse. The following applies: 48 h, 37 °C, read-out: J774.2 Cell Line CC50 (µM ± SD). The procedure:
(§2) This assay was performed on mouse macrophages from the J774.2 cell line that were recloned from the original ascites and solid tumor J774.1 (according to the fabricant). The cells were cultured in RPMI medium supplemented with 10% SFB, […] penicillin, 100 ug/mL streptomycin, and glutamine (2 mM) at 37 °C and in a 5% CO2 atmosphere. The medium was changed at intervals of every 2 to 3 days. […] Cells in the presence of the maximum concentration of DMSO (0.2%) were included as a negative control. The metabolic activity of the cells was determined using the MTT method. The percentage of cell viability was calculated, and the mean cytotoxic concentration (CC50) was determined using probit analysis. Three independent assays were each performed in triplicate. The selectivity index (SI) was calculated for the promastigotes of L. mexicana and the autochthonous isolate (CC50/IC50).

In series [3] the test system is L. mexicana MNYC/BZ/62/M379 promastigotes. The experiment in a line: In vitro leishmanicidal evaluation on promastigotes (MTT), strain M379. It is filed as cell-based. The following applies: read-out: Leishmania mexicana IC50 (µM ± SD) M379. The procedure: as §1
The nature of series [4]: Cytotoxicity in murine macrophages (MTT). It is filed as cell-based, mouse. The following applies: mouse, 37 °C, read-out: J774.2 Cell Line CC50 (µM ± SD). The procedure:
as §2

Where [5] appears, read: Leishmania mexicana, promastigotes, strain MHOM/MX/2017/UABJO17FCQEPS, 26 °C, MTT.
[6] abbreviates: Leishmania mexicana, promastigotes, strain MNYC/BZ/62/M379, 48 h, 26 °C, MTT.

Where two headings read alike, the source gives them in different places. Bounds are passed on as bounds.

Consider `CCc1cc2c(cc1CC)CC(NC[C@H](O)c1ccc(O)c3[nH]c(=O)ccc13)C2` [Compound S-8, indacaterol], for which the figures for the concentration for half-maximal inhibition (IC50) in series [1] (setting [5]), in series [2] (Leishmania mexicana) and in series [3] (setting [6]) were 56 ± 5.87 µM, 55 µM and 55.1 ± 2.34 µM, respectively. Moreover, the CC50 in the series with J774.2 cell line was more than 100 µM.

`CNC(=O)c1cc(Oc2ccc(NC(=O)Nc3ccc(Cl)c(C(F)(F)F)c3)cc2)ccn1` [Compound S-7, sorafenib]: the IC50 stood at 166 ± 18.1 µM in series [1] (Leishmania mexicana) and 24.9 ± 3.08 µM in series [3] (Leishmania mexicana, 48 h). In addition, in series [4], the CC50 at 48 h came to 64.9 ± 9.58 µM.

In the case of `C[C@H]1[C@H](C)CC[C@]2(C(=O)O)CC[C@]3(C)C(=CC[C@@H]4[C@@]5(C)CC[C@H](O)C(C)(C)[C@@H]5CC[C@]43C)[C@H]12` [Compound B-3, ursolic acid], the concentration for half-maximal inhibition (IC50) in series [1] (setting [5]) was 87.2 ± 7.05 µM; in series [3] (setting [6]) it was more than 200 µM. In addition, the CC50 at 48 h in series [4] (J774.2 macrophage cells) was found to be 49.2 ± 5.53 µM.

On to `CC1(C)[C@@H](O)CC[C@]2(C)[C@H]3C(=O)C=C4[C@@H]5C[C@@](C)(C(=O)O)CC[C@]5(C)CC[C@@]4(C)[C@]3(C)CC[C@@H]12` [Compound S-3, glycyrrhetinic acid], for which the 50% inhibitory concentration (IC50) in series [1] (setting [5]) came out at 145 ± 12.1 µM; in series [3] (setting [6]) it was 44.2 ± 5.03 µM. In addition, in the series on J774.2 cell line, the CC50 was more than 100 µM.

With Glucantime, the 50% inhibitory concentration (IC50) in series [1] (promastigotes, strain MHOM/MX/2017/UABJO17FCQEPS, 26 °C, MTT) came to 125 ± 11.6 µM; in series [2], 133 µM; in series [3] (promastigotes, strain MNYC/BZ/62/M379, 48 h, 26 °C, MTT), 134 ± 2.79 µM.
